# PubChem BioAssay (NCI)
#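 Exposure lasted 48 hours, with cells grown in 96-well plates and compounds tested at five concentrations. At the GI50, growth is halved. The concentration for full growth arrest is given as TGI.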
# Columns and labels:
# Assay in all cases: inhibition of tumour cell growth, NCI panel, 48 h
# CCRF-CEM leukemia = test system: CCRF-CEM leukemia
# NCI/ADR-RES ovarian = test system: NCI/ADR-RES ovarian
# NCI-H226 lung = test system: NCI-H226 lung
# OVCAR-5 ovarian = test system: OVCAR-5 ovarian
# M14 melanoma = test system: M14 melanoma
# T-47D breast = test system: T-47D breast
# OVCAR-3 ovarian = test system: OVCAR-3 ovarian
# MDA-MB-231 breast = test system: MDA-MB-231 breast
# UACC-62 melanoma = test system: UACC-62 melanoma
# RXF 393 renal = test system: RXF 393 renal
# TK-10 renal = test system: TK-10 renal
# K-562 leukemia = test system: K-562 leukemia
# CAKI-1 renal = test system: CAKI-1 renal
# SK-MEL-2 melanoma = test system: SK-MEL-2 melanoma
# BT-549 breast = test system: BT-549 breast
# SNB-75 CNS = test system: SNB-75 CNS
# HCT-116 colon = test system: HCT-116 colon
# HL-60(TB) leukemia = test system: HL-60(TB) leukemia
# PC-3 prostate = test system: PC-3 prostate
# LOX IMVI melanoma = test system: LOX IMVI melanoma
# HT29 colon = test system: HT29 colon
# SNB-19 CNS = test system: SNB-19 CNS
# IGROV1 ovarian = test system: IGROV1 ovarian
# SW-620 colon = test system: SW-620 colon
# HCC-2998 colon = test system: HCC-2998 colon
# SF-268 CNS = test system: SF-268 CNS
# HOP-92 NSCLC = test system: HOP-92 NSCLC
# SK-OV-3 ovarian = test system: SK-OV-3 ovarian
# MOLT-4 leukemia = test system: MOLT-4 leukemia
# A549 NSCLC = test system: A549 NSCLC
smiles,measurement,setting,value
O=C(Nc1ccc(OCc2ccc(Cl)cc2)cc1)Nc1ccc(Cl)c(C(F)(F)F)c1,GI50,CCRF-CEM leukemia,3.05 µM
same,TGI,CCRF-CEM leukemia,79.6 µM
same,GI50,NCI/ADR-RES ovarian,1.74 µM
same,TGI,NCI/ADR-RES ovarian,5.41 µM
same,GI50,NCI-H226 lung,2 µM
same,TGI,NCI-H226 lung,5.27 µM
same,GI50,OVCAR-5 ovarian,3.01 µM
same,TGI,OVCAR-5 ovarian,17.4 µM
same,GI50,M14 melanoma,2.8 µM
same,TGI,M14 melanoma,12.1 µM
same,GI50,T-47D breast,2.06 µM
same,TGI,T-47D breast,10.1 µM
same,GI50,OVCAR-3 ovarian,1.98 µM
same,TGI,OVCAR-3 ovarian,8.35 µM
same,GI50,MDA-MB-231 breast,2.45 µM
same,TGI,MDA-MB-231 breast,6.88 µM
same,GI50,UACC-62 melanoma,2.4 µM
same,TGI,UACC-62 melanoma,10.6 µM
same,GI50,RXF 393 renal,2.89 µM
same,TGI,RXF 393 renal,6.17 µM
same,GI50,TK-10 renal,2.74 µM
same,TGI,TK-10 renal,9.69 µM
same,GI50,K-562 leukemia,1.72 µM
same,TGI,K-562 leukemia,65.7 µM
same,GI50,CAKI-1 renal,2.31 µM
same,TGI,CAKI-1 renal,6.83 µM
same,GI50,SK-MEL-2 melanoma,2 µM
same,TGI,SK-MEL-2 melanoma,4.6 µM
same,GI50,BT-549 breast,2.37 µM
same,TGI,BT-549 breast,5.63 µM
same,GI50,SNB-75 CNS,1.42 µM
same,TGI,SNB-75 CNS,5.45 µM
same,GI50,HCT-116 colon,1.87 µM
same,TGI,HCT-116 colon,7.71 µM
same,GI50,HL-60(TB) leukemia,2.33 µM
same,TGI,HL-60(TB) leukemia,7.07 µM
same,GI50,PC-3 prostate,1.19 µM
same,TGI,PC-3 prostate,13.8 µM
same,GI50,LOX IMVI melanoma,1.85 µM
same,TGI,LOX IMVI melanoma,3.57 µM
same,GI50,HT29 colon,2.78 µM
same,TGI,HT29 colon,10.2 µM
same,GI50,SNB-19 CNS,2.45 µM
same,TGI,SNB-19 CNS,7.99 µM
same,GI50,IGROV1 ovarian,3.25 µM
same,TGI,IGROV1 ovarian,13.5 µM
same,GI50,SW-620 colon,2.56 µM
same,TGI,SW-620 colon,10.3 µM
same,GI50,HCC-2998 colon,2.89 µM
same,TGI,HCC-2998 colon,11.7 µM
same,GI50,SF-268 CNS,3.18 µM
same,TGI,SF-268 CNS,13.2 µM
same,GI50,HOP-92 NSCLC,1.96 µM
same,TGI,HOP-92 NSCLC,5.37 µM
same,GI50,SK-OV-3 ovarian,3.42 µM
same,TGI,SK-OV-3 ovarian,11.6 µM
same,GI50,MOLT-4 leukemia,3.02 µM
same,TGI,MOLT-4 leukemia,27.2 µM
same,GI50,A549 NSCLC,2.19 µM
